The values below come from patent publication US5227372A, “Method for retaining ophthalmological agents in ocular tissues” (Children's Medical Center Corporation, priority 1990, dated 1993).

Series [1] in a line: Fluorescence of Descemet's membrane in histological sections of corneas after application to the cornea (Example 4). Type of series: in vivo, rabbit. Particulars: fluorescein alone.
Series [2] in a line: Fluorescence of neovascularized corneal vessels after injection into the carotid artery (Example 4). Type of series: in vivo, rabbit. Particulars: injected into the carotid artery; fluorescein alone. The procedure: The water soluble complex described in Example 3 was injected into the carotid artery of rabbits who had neovascularization in the cornea induced by a pellet of endotoxin implanted one week earlier. After a single injection, the new vessels in the cornea were still flourescing green 3 hours later.
Similarly, when the cyclodextrin-fluorscein complex, dissolved in an aqueous solution of methylcellulose (0.45%), was applied to the rabbit cornea, Descemet's membrane in the cornea also glowed green more than 3 hours later when histological sections of the corneas were examined.

For series [3] the following is noted: intravenous injection; fluorescein alone; cited from earlier work.
The conditions of series [4]: polymeric film; cited from earlier work.
The conditions of series [5]: polyacrylamide and copolymer of acrylamide, N-vinylpyrrolidone and ethyl acrylate matrix; cited from earlier work.
For series [6] the following is noted: rabbit, in vivo.
For series [7] the following is noted: rabbit, in vivo. The source holds these as a separate data set.
Experimental: A polyethylene ring was glued to the cornea in anesthesized rabbits. Saline containing 1 mg/ml of [S^35 ]-β-cyclodextrin tetradecasulfate was added to each well for up to 120 minutes, after which the wells were removed and the corneas vigorously rinsed with saline. The anterior chamber fluid (ACF) was then aspirated. The corneas were then exised and digested in collegenase and the corneal supernatunt counted.
For series [8], the system named is fibroblast growth factor (FGF). As to conditions: sulfated cyclodextrin column; Shing et al.; cited from earlier work.

Regarding `O=C1OC2(c3ccc(O)cc3Oc3cc(O)ccc32)c2ccccc21` [fluorescein], the “presence in Descemet's membrane” value in series [1] was “not found in Descemet's membrane”. Further, in series [2], the “disappearance from the corneal vessels” value was “disappeared from the corneal vessels within a few minutes”. The “time to clearance from the blood vessels” value in series [3] is given as “less than one”.
`CC[C@@H]1C(=O)OC[C@@H]1Cc1cncn1C` [pilocarpine]: the “increase in ocular bioavailability of pilocarpine over aqueous solution” value in series [4] was “two”. Moreover, the “increase in ocular bioavailability of pilocarpine” value in series [5] was “three”.
With β-cyclodextrin tetradecasulfate, in series [6], the “concentration in the aqueous humor relative to cornea” value was “parallels that in the cornea, but at lower levels”; the “time course in the cornea” value is “rapid rise in the cornea of labelled β-cyclodextrin tetradecasulfate and then a gradual fall-off”. Also, in series [7], the “time after removal of wells up to which label is detected in the ACF and in the corneas” value is “up to three”; the “time course of penetration in both the corneas and ACF” value is on record as “increased bearly with time”. In addition, the “affinity for FGF” value in series [8] is reported as “high affinity”.
